Results from US7488738B2, “Aminophenoxyacetic acid derivatives and pharmaceutical composition containing thereof” (Asubio Pharma Co., Ltd., priority 1998, dated 2009).

Test system: cells of cerebral cortex
Experiment: Cytoprotective effect against glutamate induced cell death (MTT)
Type: cell-based, rats of Wister strain
Settings: compound 1 μM added 24 h before 1 mM glutamate, fetal rat cerebral cortex cells, control group = 100%
Method: Biological Test 1: Cytoprotective Effect Against Glutamate Induced Cell Death
In accordance with the method of M. P. Mattoson [M. P. Mattoson, Brain Res. Rev., 13, 179 (1988)], brain of 18-days fetus rats of Wister strain were taken out. Then, cells of cerebral cortex (4×10^5 cells/ml) were seeded on poly-L-lysine coated 96 wells flat bottom plate (Sumitomo Bakelite Co., Ltd.) in concentration of 4×10^4 cells/each well. After 48 hours of incubation, 1 μM of test compounds were added, then after further 24 hours, 1 mM of glutamate were further added for inducing the cell injury. 12 hours after adding glutamate, MTT [3-(4,5-dimethylthiazol)-2,5-diphenyltetrazolium bromide] was added and incubated for 6 hours.
After incubation, 200 μl of dimethy sulfoxide was added to each wells, and the amounts of reduced MTT were calorimetrically analyzed by Micro ELISA Reader using 570 nm of main-wavelength and 650 nm of sub-wavelength.
The effect of the test compounds was determined as the survival rate of living cells (%) according to the following equation: Survival rate of living cells (%)=[(test compound group−glutamate treated group)÷(control group−glutamate treated group)]×100
That is, the survival rate of living cells after incubation of the control group was converted to 100%, and the survival data of living cells of the tested compounds was shown in Table II.

SMILES	Survival Rate (%) (Compound: 1 μM)
Cc1cc(OC(C)(C)C(=O)NC2CCN(C/C=C/c3ccccc3)CC2)c(C)c(C)c1N [Compound 80, 2-(4-Amino-2,3,5-trimethylphenoxy)-2-methyl-N-[1-(3-phenyl-2-(E)-propenyl)-4-piperidinyl]propamide]	99
Cc1cc(OC(C)(C)C(=O)NC2CCN(CC3(c4ccccc4)CC3)CC2)c(C)c(C)c1N [Compound 81, 2-(4-Amino-2,3,5-trimethylphenoxy)-2-methyl-N-[1-(1-phenyl-1-cyclopropane)methyl-4-piperidinyl]propamide]	97
Cc1cc(OC(C)(C)C(=O)NC2CCN(CC(=O)Nc3ccccc3)CC2)c(C)c(C)c1N [Compound 82, 2-(4-Amino-2,3,5-trimethylphenoxy)-2-methyl-N-[1-(2-anilino-2-oxyethyl)-4-piperidinyl]propamide]	149
Cc1cc(OC(C)C(=O)NC2CCN(CC(=O)Nc3ccccc3)CC2)c(C)c(C)c1N (stereo not shown) [Compound 83, 2-(4-Amino-2,3,5-trimethylphenoxy)-N-[1-(2-anilino-2-oxyethyl)-4-piperidinyl]propamide]	65
Cc1cc(OC(C)C(=O)NC2CCN(C/C=C/c3ccccc3)CC2)c(C)c(C)c1N (stereo not shown) [Compound 84, 2-(4-Amino-2,3,5-trimethylphenoxy)-N-[1-(3-phenyl-2-(E)-propenyl)-4-piperidinyl]propamide]	87
Cc1cc(OCC(=O)NC2CCN(CC(=O)Nc3ccccc3)CC2)c(C)c(C)c1N [Compound 85, 2-(4-Amino-2,3,5-trimethylphenoxy)-N-[1-(2-anilino-2-oxyethyl)-4-piperidinyl]acetamide]	98
CCN(C(=O)C(C)Oc1cc(C)c(N)c(C)c1C)C1CCN(CC2(c3ccccc3)CC2)CC1 (stereo not shown) [Compound 87, 2-(4-Amino-2,3,5-trimethylphenoxy)-N-ethyl-N-[1-(1-phenyl-1-cyclopropane)methyl-4-piperidinyl]propamide]	81
CCN(C(=O)CNc1c(C)c(C)c(N)c(C)c1C)C1CCN(CC2(c3ccccc3)CC2)CC1 [Compound 88, 2-(4-Amino-2,3,5,6-tetramethylanilino)-N-ethyl-N-[1-(1-phenyl-1-cyclopropane)methyl-4-piperidinyl]acetamide]	81
Cc1cc(OCC(=O)N(C)C2CCN(CC(=O)Nc3cc(Cl)c(N)cc3Cl)CC2)c(C)c(C)c1N [Compound 89, 2-(4-Amino-2,3,5-trimethylphenoxy)-N-[1-(2-(4-amino-2,5-dichloro)anilino-2-oxyethyl)-4-piperidinyl]-N-methylacetamide]	126
Cc1cc(OC(C)C(=O)N(C)C2CCN(CC3(c4ccccc4)CC3)CC2)c(C)c(C)c1N (stereo not shown) [Compound 90, 2-(4-Amino-2,3,5-trimethylphenoxy)-N-methyl-N-[1-(1-phenyl-1-cyclopropane)methyl-4-piperidinyl]propamide]	149
Cc1c(C)c(OCC(=O)NC2CCN(CC(=O)Nc3ccccc3)CC2)c(Cl)c(C)c1N [Compound 91, 2-(4-Amino-2-chloro-3,5,6-trimethylphenoxy)-N-[1-(2-anilino-2-oxyethyl)-4-piperidinyl]acetamide]	203
Cc1c(C)c(OCC(=O)N(C)C2CCN(CC(=O)Nc3cc(Cl)c(N)cc3Cl)CC2)c(Cl)c(C)c1N [Compound 92, 2-(4-Amino-2-chloro-3,5,6-trimethylphenoxy)-N-[1-(2-(4-amino-2,5-dichloro)anilino-2-oxyethyl)-4-piperidinyl]-N-methylacetamide]	66
CCN(C(=O)COc1c(C)c(C)c(N)c(C)c1Cl)C1CCN(CC(=O)Nc2cc(C)c(O)cc2C)CC1 [Compound 93, 2-(4-Amino-2-chloro-3,5,6-trimethylphenoxy)-N-[1-(2-(2,5-dimethyl-4-hydroxy)anilino-2-oxyethyl)-4-piperidinyl]-N-ethylacetamide]	171
Cc1cc(OCC(=O)NC2CCN(CC3(c4ccccc4)CC3)CC2)c(C)c(C)c1N [Compound 96, 2-(4-Amino-2,3,5-trimethylphenoxy)-N-[1-(1-phenyl-1-cyclopropane)methyl-4-piperidinyl]acetamide]	91
Cc1cc(OCC(=O)NC2CCN(CCc3ccccc3)CC2)c(C)c(C)c1N [Compound 97, 2-(4-Amino-2,3,5-trimethylphenoxy)-N-(1-(2-phenethyl)-4-piperidinyl)acetamide]	119
Cc1cc(OC(C)(C)C(=O)NC2CCN(CC(=O)Nc3c(C)cccc3C)CC2)c(C)c(C)c1N [Compound 98, 2-(4-Amino-2,3-5-trimethylphenoxy)-2-methyl-N-[1-(2-(2,6-dimethylanilino)-2-oxyethyl)-4-piperidinyl]propamide]	120
Cc1cc(OC(C)(C)C(=O)NC2CCN(CC(=O)Nc3ccccc3C(C)(C)C)CC2)c(C)c(C)c1N [Compound 100, 2-(4-Amino-2,3,5-trimethylphenoxy)-2-methyl-N-[1-(2-(2-tert-butylanilino)-2-oxyethyl)-4-piperidinyl]propamide]	138
Cc1cc(OC(C)C(=O)NC2CCN(CC3(c4ccccc4)CC3)CC2)c(C)c(C)c1N (stereo not shown) [Compound 101, 2-(4-Amino-2,3,5-trimethylphenoxy)-N-[1-(1-phenyl-1-cyclopropane)methyl-4-piperidinyl]propamide]	138
Cc1cc(OC(C)C(=O)NC2CCN(CC(=O)NC3(c4ccccc4)CC3)CC2)c(C)c(C)c1N (stereo not shown) [Compound 102, 2-(4-Amino-2,3,5-trimethylphenoxy)-N-[1-(2-(1-phenylcyclopropyl)amino-2-oxyethyl)-4-piperidinyl]propamide]	89
Cc1cc(OC(C)C(=O)N(C)C2CCN(CC(O)COc3ccccc3)CC2)c(C)c(C)c1N (stereo not shown) [Compound 103, 2-(4-Amino-2,3,5-trimethylphenoxy)-N-methyl-N-[1-(2-hydroxy-3-phenoxy)propyl-4-piperidinyl]propamide]	180
Cc1cc(NC(=O)CN2CCC(N(C)C(=O)C(C)(C)Oc3cc(C)c(N)c(C)c3C)CC2)c(C)cc1O [Compound 107, 2-(4-Amino-2,3,5-trimethylphenoxy)-2-methyl-N-[1-(2-(2,5-dimethyl-4-hydroxy)anilino-2-oxyethyl]-4-piperidinyl]-N-methylpropamide]	227
Cc1c(C)c(NCC(=O)N(C)C2CCN(Cc3ccc(C(N)=O)cc3)CC2)c(C)c(C)c1N [Compound 116]	59
Cc1c(C)c(N(C)CC(=O)N(C)C2CCN(CCc3ccccc3)CC2)c(C)c(C)c1N [Compound 120, 2-(4-Amino-2,3,5,6-tetramethyl-N-methylanilino)-N-methyl-N-[1-(2-phenethyl)-4-piperidinyl]acetamide]	88
Cc1c(C)c(NC(C)C(=O)N(C)C2CCN(CC3CC3)CC2)c(C)c(C)c1N (stereo not shown) [Compound 121, 2-(4-Amino-2,3,5,6-tetramethylanilino)-N-[1-(cyclopropylmethyl)-4-piperidinyl]-N-methylpropamide]	82
Cc1cc(C)c(NCC(=O)N(C)C2CCN(CC(O)COc3ccccc3)CC2)c(C)c1N (stereo not shown) [Compound 126, 2-(3-Amino-2,4,6-tirmethylanilino)-N-[1-(2-hydroxy-3-phenoxy)propyl-4-piperidinyl]-N-methylacetamide]	47
Cc1cc(C)c(NCC(=O)N(C)C2CCN(CC(=O)c3ccccc3)CC2)c(C)c1N [Compound 127, 2-(3-Amino-2,4,6-trimethylanilino)-N-methyl-N-[1-(2-phenyl-2-oxyethyl)-4-piperidinyl]acetamide]	72

Same assay, conditions: compound 1 μM added 24 h before 1 mM glutamate, fetal rat cerebral cortex cells, control group = 100%, read-out: Survival Rate (%) (Compound: 1 μM)

SMILES	viability at 1 µM [%]
Cc1cc(OCC(=O)NC2CCN(C/C=C/c3ccccc3)CC2)c(C)c(C)c1N [Compound 86, 2-(4-Amino-2,3,5-trimethylphenoxy)-N-[1-(3-phenyl-2-(E)-propenyl)-4-piperidinyl]acetamide]	127
Cc1c(C)c(NCC(=O)N(C)C2CCN(Cc3ccccc3)CC2)c(C)c(C)c1N [Compound 110, 2-(4-Amino-2,3,5,6-tetramethylanilino)-N-(1-benzyl-4-piperidinyl]-N-methylacetamide]	61
Cc1c(C)c(NCC(=O)N(C)C2CCN(Cc3ccncc3)CC2)c(C)c(C)c1N [Compound 114, 2-(4-Amino-2,3,5,6-tetramethylanilino)-N-methyl-N-[1-(4-pyridylmethyl)-4-piperidinyl]acetamide]	50
Cc1cc(C)c(NCC(=O)N(C)C2CCN(C/C=C/c3ccccc3)CC2)c(C)c1N [Compound 125, 2-(3-Amino-2,4,6-trimethylanilino)-N-methyl-N-[1-(3-phenyl-2-(E)-propenyl)-4-piperidinyl]acetamide]	52
Cc1cc(C)c(NCC(=O)N(C)C2CCN(CC3CC3)CC2)c(C)c1N [Compound 129, 2-(3-Amino-2,4,6-trimethylanilino)-N-[1-(cyclopropylmethyl)-4-piperidinyl]-N-methylacetamide]	64
